# What was measured:
# [1] = system: Tetranychus urticae; assay: Tetranychus urticae spray test, OP-resistant; assay type: in vivo; conditions: application rate 500 g/ha, bean leaf discs, after 6 days
# Experimental: Tetranychus urticae—Spray Test, OP-Resistant
# (§1) Solvent: 78.0 parts by weight of acetone • • 1.5 parts by weight of dimethylformamide
# (§2) Emulsifier: alkylaryl polyglycol ether
# (§3) To produce a suitable active compound formulation, 1 part by weight of active compound is dissolved with the specified parts by weight of solvent and made up to the desired concentration with water containing an emulsifier concentration of 1000 ppm. To produce further test concentrations, the formulation is diluted with emulsifier-containing water.
# Discs of bean leaves (Phaseolus vulgaris) infested by all stages of the red spider mite (Tetranychus urticae) are sprayed with an active compound formulation of the desired concentration.
# After 6 days, the efficacy in % is determined. 100% means that all the spider mites have been killed; 0% means that no spider mites have been killed.
# [2] = system: Diabrotica balteata; assay: Diabrotica balteata spray test; assay type: in vivo; conditions: application rate 160 μg/well, beetle larvae on germinated wheat grains, after 7 days
# Experimental: Diabrotica balteata—Spray Test
# (§4) Solvent: 78 parts by weight of acetone • • 1.5 parts by weight of dimethylformamide
# as §2, §3
# Pre-swollen wheat grains (Triticum aestivum) are incubated in a multiwell plate filled with agar and a little water for one day (5 seed grains per well). The germinated wheat grains are sprayed with an active compound preparation of the desired concentration. Subsequently, each cavity is infected with 10-20 beetle larvae of Diabrotica balteata.
# After 7 days, the efficacy in % is determined. 100% means that all maize plants have grown as in the untreated, uninfected control; 0% means that no maize plant has grown.
# [3] = system: Myzus persicae; assay: Myzus persicae spray test; assay type: in vivo; conditions: application rate 500 g/ha, Chinese cabbage leaf discs, after 5 days
# Experimental: Myzus persicae—Spray Test
# as §4, §2, §3
# Discs of Chinese cabbage leaves (Brassica pekinensis) infested by all stages of the green peach aphid (Myzus persicae) are sprayed with an active compound formulation of the desired concentration.
# (§5) After 5 days, the efficacy in % is determined. 100% means that all the aphids have been killed; 0% means that no aphids have been killed.
# [4] = system: Lucilia cuprina; assay: Lucilia cuprina test; assay type: in vivo; conditions: application rate 100 ppm; L1 larvae; after 2 days
# Experimental: (§6) Solvent: dimethyl sulfoxide
# (§7) To produce a suitable active compound formulation, 10 mg of active compound are mixed with 0.5 ml of dimethyl sulfoxide, and the concentrate is diluted with water to the desired concentration.
# About 20 L1 larvae of the Australian sheep blowfly (Lucilia cuprina) are transferred into a test vessel containing minced horsemeat and the active compound formulation of the desired concentration.
# After 2 days, the kill in % is determined. 100% means that all the larvae have been killed; 0% means that no larvae have been killed.
# [5] = system: Myzus persicae; assay: Myzus persicae oral test; assay type: in vivo; conditions: after 5 days
# Experimental: Solvent: 100 parts by weight of acetone
# To produce a suitable active compound formulation, 1 part by weight of active compound is dissolved with the stated parts by weight of solvent and made up to the desired concentration with water.
# 50 μl of the active compound formulation are transferred into microtitre plates and made up to a final volume of 200 μl with 150 μl of IPL41 insect medium (33%+15% sugar). Subsequently, the plates are sealed with parafilm, which a mixed population of green peach aphids (Myzus persicae) within a second microtitre plate is able to puncture and imbibe the solution.
# as §5
# [6] = system: Musca domestica; assay: Musca domestica test; assay type: in vivo; conditions: application rate 100 ppm; adult houseflies; after 2 days
# Experimental: as §6, §7
# Vessels containing a sponge treated with sugar solution and the active compound formulation of the desired concentration are populated with 10 adult houseflies (Musca domestica).
# After 2 days, the kill in % is determined. 100% means that all of the flies have been killed; 0% means that none of the flies have been killed.
# [7] = system: Ctenocephalides felis; assay: Ctenocephalides felis oral test; assay type: in vivo; conditions: application rate 100 ppm in citrated cattle blood; adult cat fleas; after 2 days
# Experimental: Ctenocephalides felis—Oral Test
# as §6
# To produce a suitable active compound formulation, 10 mg of active compound are mixed with 0.5 ml of dimethyl sulfoxide. Dilution with citrated cattle blood gives the desired concentration.
# About 20 unfed adult cat fleas (Ctenocephalides felis) are placed into a chamber which is closed at the top and bottom with gauze. A metal cylinder whose bottom end is closed with parafilm is placed onto the chamber. The cylinder contains the blood/active compound formulation, which can be imbibed by the fleas through the parafilm membrane.
# After 2 days, the kill in % is determined. 100% means that all of the fleas have been killed; 0% means that none of the fleas have been killed.
# [8] = system: Rhipicephalus sanguineus; assay: Rhipicephalus sanguineus in vitro contact test with adults of the brown dog tick; assay type: in vivo; conditions: application rate 5 μg/cm^2 (=500 g/ha), adult dog ticks, after 48 h
# Experimental: Rhipicephalus sanguineus—In Vitro Contact Tests with Adults of the Brown Dog Tick
# (§8) For the coating of the test tubes, 9 mg of active compound are first dissolved in 1 ml of acetone p.a. and then diluted to the desired concentration with acetone p.a. 250 μl of the solution are distributed homogeneously on the inner walls and the base of a 25 ml glass tube by turning and rocking on an orbital shaker (rocking rotation at 30 rpm for 2 h). With 900 ppm of active compound solution and internal surface area 44.7 cm^2, given homogeneous distribution, an area-based dose of 5 μg/cm^2 is achieved.
# After the solvent has evaporated off, the tubes are populated with 5-10 adult dog ticks (Rhipicephalus sanguineus), sealed with a perforated plastic lid and incubated in the dark in a horizontal position at room temperature and ambient humidity. After 48 h, efficacy is determined. To this end, the ticks are knocked to the base of the tube and, incubated on a heating plate at 45-50° C. for a maximum of 5 minutes. Ticks which remain motionless at the base or move in such an uncoordinated manner that they cannot purposely escape the heat by climbing upward are considered to be dead or moribund.
# 100% efficacy means that all the ticks were dead or moribund. 0% efficacy means that no ticks were harmed.
# [9] = system: Ctenocephalides felis; assay: Ctenocephalides felis in vitro contact test with adult cat fleas; assay type: in vivo; conditions: application rate 5 μg/cm^2 (=500 g/ha), after 48 h
# Experimental: Ctenocephalides felis—In Vitro Contact Tests with Adult Cat Fleas
# as §8
# After the solvent has evaporated off, the tubes are populated with 5-10 adult cat fleas (Ctenocephalides felis), sealed with a perforated plastic lid and incubated in a horizontal position at room temperature and ambient humidity. After 48 h, efficacy is determined. To this end, the tubes are stood upright and the fleas are knocked to the base of the tube. Fleas which remain motionless at the base or move in an uncoordinated manner are considered to be dead or moribund.
# 100% efficacy means that all the fleas were dead or moribund. 0% efficacy means that no fleas were harmed.
# [10] = system: Phaedon cochleariae; assay: Phaedon cochleariae spray test; assay type: in vivo; conditions: foliar, 168 h, application rate 500 g/ha, larvae on Chinese cabbage leaf discs, after 7 days, read-out: efficacy
# Experimental: Phaedon cochleariae—Spray Test
# as §1, §2, §3
# Discs of Chinese cabbage leaves (Brassica pekinensis) are sprayed with an active compound formulation of the desired concentration and, after drying, populated with larvae of the mustard beetle (Phaedon cochleariae).
# After 7 days, the efficacy in % is determined. 100% means that all the beetle larvae have been killed; 0% means that no beetle larvae have been killed.
# [11] = log P by HPLC (EEC directive 79/831 Annex V.A8); assay type: physicochemical
# Experimental: The log P values reported in the tables and preparation examples above were determined in accordance with EEC directive 79/831 Annex V.A8 by HPLC (High Performance Liquid Chromatography) using a reversed-phase column (C18). Temperature 43° C. The calibration is effected with unbranched alkan-2-ones (having 3 to 16 carbon atoms), for which the log P values are known.
# [12] = system: Spodoptera frugiperda; assay: Spodoptera frugiperda spray test; assay type: in vivo; conditions: application rate 500 g/ha; caterpillars on maize leaf discs; after 7 days
# Experimental: Spodoptera frugiperda—Spray Test
# as §1, §2, §3
# Leaf discs of maize (Zea mays) are sprayed with an active compound formulation of the desired concentration and, after drying, populated with caterpillars of the fall armyworm (Spodoptera frugiperda).
# After 7 days, the efficacy in % is determined. 100% means that all the caterpillars have been killed; 0% means that no caterpillar has been killed.
# [13] = system: Nilaparvata lugens; assay: Nilaparvata lugens test; assay type: in vivo; conditions: application rate 500 g/ha; rice plants; after 4 days
# Experimental: as §1, §2, §3
# Rice plants (Oryza sativa) are sprayed with the active compound formulation of the desired concentration and then infected with the brown planthopper (Nilaparvata lugens).
# After 4 days, the efficacy in % is determined. 100% means that all of the planthoppers have been killed; 0% means that none of the planthoppers have been killed.
# [14] = system: Nezara viridula; assay: Nezara viridula spray test; assay type: in vivo; conditions: application rate 500 g/ha; larvae on barley plants; after 4 days
# Experimental: Nezara viridula—Spray Test
# as §1, §2, §3
# Barley plants (Hordeum vulgare) infected with larvae of the Southern green shield bug (Nezara viridula) are srayed with an active compound formulation of the desired concentration.
# After 4 days, the efficacy in % is determined. 100% means that all of the shield bugs have been killed; 0% means that none of the shield bugs have been killed.
Compound,efficacy [1] [%],efficacy [2] [%],efficacy [3] [%],efficacy (kill in %) [4] [%],efficacy ([5]; application rate 4 ppm) [%],efficacy (kill in %) [6] [%],efficacy (kill in %) [7] [%],efficacy [9] [%],further results
CCC(C)OC(=O)C(=O)c1c([O-])[n+]2ccccc2n1Cc1cnc(Cl)s1 (centres unmarked) [Example I-037],90,100,100,95,100,100,–,–,–
CC(C)OC(=O)C(=O)c1c([O-])[n+]2ccccc2n1Cc1cnc(Cl)s1 [Example I-038],–,–,90,90,100,100,80,–,efficacy [8]: 100%; efficacy ([8]; listed as 1-038): 80%
"Cc1ccc[n+]2c([O-])c(C(=O)C(F)(F)F)n(Cc3cnc(Cl)s3)c12 [Example I-024, 1-[(2-Chlorothiazol-5-yl)methyl]-8-methyl-2-(2,2,2-trifluoroacetyl)imidazo[1,2-a]pyridin-4-ium-3-olate]",–,–,–,100,–,–,90,100,"pest or weed control at 500 g/ha [10]: 100%; pest or weed control at 160 µg/disc, 160 µg/well ([2]; Diabrotica balteata, 168 h, read-out: efficacy): 100%; chromatographic logP [11]: 2.07; pest or weed control at 500 g/ha ([3]; Myzus persicae, foliar, 120 h, read-out: efficacy): 90%; efficacy [12]: 83%; pest or weed control at 4 ppm ([5]; Myzus persicae, po, 120 h, application rate 4 ppm, read-out: efficacy): 100%; efficacy [8]: 100%"
COCCOC(=O)C(=O)c1c([O-])[n+]2ccccc2n1Cc1cnc(Cl)s1 [Example I-050],90,–,100,–,100,–,–,–,–
O=C(c1c([O-])[n+]2ccccc2n1Cc1cnc(Cl)s1)C(F)(F)Cl [Example I-019],–,100,100,95,100,80,95,100,efficacy [12]: 100%
CC(=O)c1c([O-])[n+]2ccccc2n1Cc1cnc(Cl)s1 [Example I-008],–,100,100,–,100,–,–,100,efficacy [13]: 100%; efficacy [14]: 90%; efficacy ([5]; application rate 20 ppm): 100%
O=C(OCC1CCC1)C(=O)c1c([O-])[n+]2ccccc2n1Cc1cnc(Cl)s1 [Example I-039],90,–,90,–,100,–,–,–,–
CN(C)C(=O)C(=O)c1c([O-])[n+]2ccccc2n1Cc1cnc(Cl)s1 [Example I-041],90,–,–,–,–,–,–,–,–
CCN(CC)C(=O)C(=O)c1c([O-])[n+]2ccccc2n1Cc1cnc(Cl)s1 [Example I-040],100,–,90,–,–,–,–,–,–

# Source: patent US20200037600A1, “MESOIONIC IMIDAZOPYRIDINES AS INSECTICIDES” (Bayer Aktiengesellschaft, priority 2017, published 2020)
